Experiments:
[1] = test system: MDCK cell monolayers; details: diameter of zone with apparent cytotoxicity; 0.02 ml of 1 mg/ml solution in 6 mm well
[2] = test system: influenza A/Port Chalmers/1/73 (H3N2) virus; assay: Plaque reduction assay; assay type: cell-based; details: MDCK cells; for inhibition at 1.3 µM / inhibition at 4.1 µM / inhibition at 13 µM / inhibition at 41 µM / inhibition at 130 µM / inhibition at 410 µM: Influenza A virus, H3N2, read-out: % Plaque Reduction at Concentration Given
Excerpt: More accurate quantitation of antiviral activity was achieved by incorporated of concentrations of the test compound varying from 1.3 x 10^-6M to 4.1 x 10^-4M into the agar overlay above the influenza A/Port Chalmers/1/73 (H3N2) virus infected MDCK cell monolayers. The % reduction in the number of virus induced plaques at each compound concentration is given below.

[3] = test system: influenza A/Port Chalmers/l/73 (H3N2) virus; assay: Diffusion test (plaque inhibition zone); assay type: cell-based; details: diameter of plaque-free zone, 0.02 ml of 1 mg/ml solution in 6 mm well, infected MDCK cell monolayers; for zone of inhibition at 1000 µg/mL: Influenza A virus, H3N2, read-out: Active Zone
Protocol: Diffusion Test. 10 mg/ml solutions of the compounds in water were diluted to a concentration of 1 mg/ml with Eagle's minimum essential medium and 0.02 ml introduced into wells 6mm in diameter cut into an agar layer above influenza A/Port Chalmers/l/73 (H3N2) virus infected MDCK cell monolayers. An infection level giving an even distribution of subconfluent plaques was used. The diameters of zones around the wells free from virus induced plaques (inhibition zones) and diameters of zones in which cytotoxicity was apparent are reported.

Compound | Toxic Zone [1] [mm] | inhibition at 1.3 µM ([2]; 0.13 x 10^-5 M in agar overlay) [%] | inhibition at 4.1 µM ([2]; 0.41 x 10^-5 M in agar overlay) [%] | inhibition at 13 µM ([2]; 1.3 x 10^-5 M in agar overlay) [%] | inhibition at 41 µM ([2]; 4.1 x 10^-5 M in agar overlay) [%] | inhibition at 130 µM ([2]; 13 x 10^-5 M in agar overlay) [%] | inhibition at 410 µM ([2]; 41 x 10^-5 M in agar overlay) [%] | zone of inhibition at 1000 µg/mL [3] [mm] | % Plaque Reduction at Concentration Given ([2]; 0.13 x 10^-5 M in agar overlay, 1.3 µM) [%] | % Plaque Reduction at Concentration Given ([2]; 0.41 x 10^-5 M in agar overlay, 4.1 µM) [%] | % Plaque Reduction at Concentration Given ([2]; 1.3 x 10^-5 M in agar overlay, 13 µM) [%] | % Plaque Reduction at Concentration Given ([2]; 4.1 x 10^-5 M in agar overlay, 41 µM) [%] | % Plaque Reduction at Concentration Given ([2]; 13 x 10^-5 M in agar overlay, 130 µM) [%] | % Plaque Reduction at Concentration Given ([2]; 41 x 10^-5 M in agar overlay, 410 µM) [%] | Active Zone [3] [mm]
NC(=O)c1ncn([C@@H]2O[C@H](CO)[C@@H](O)[C@H]2O)n1 [Compound 1, 1-β-D-ribofuranosyl-3-carbamoyl-1,2,4-triazole, reference compound] | 0 | 0 | 43 | 94 | 100 | 100 | 100 | 28 |  |  |  |  |  |  | 
1-[β-D-(5'-succinyl-2',3'-carbonyl)ribofuranosyl]-3-carbamoyl-1,2,4-triazole amantadine salt [Compound 6] | 0 |  |  |  |  |  |  |  | 44 | 63 | 89 | 100 | 100 | 100 | 55
NC(=O)c1ncn([C@@H]2O[C@H](COC(=O)CCC(=O)O)[C@H]3OC(=O)O[C@H]32)n1 [Compound 5, 1-[β-D-(5'-succinyl-2',3'-carbonyl)ribofuranosyl]-3-carbamoyl-1,2,4,-triazole] | 0 | 0 | 0 | 0 | 0 | 0 | 0 | 17 |  |  |  |  |  |  | 
